The supplement of paper PMC10307832

Columns and labels:
Assay in all cases: relative viability (nuclei count vs DMSO), 5 days (fraction); higher = more cells survive
[1] = tested on: NCI-H1666
Summary of the method: (§1)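 Lung cancer cell lines were seeded in 1536-well plates and dosed by pin tool the next day, with either a single drug or a fixed anchor-drug dose combined with five library-drug doses (not always all listed) spaced in √10 steps. Five days later, one step fixed the cells and stained their nuclei (final 0.05% Triton X-100, 1% formaldehyde, 1 ug/ml Hoechst), and nuclei were counted on 4× images. Relative viability is the nuclei count in treated wells divided by the count in vehicle wells, and each value is the median of duplicate plates.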

[2] = tested on: NCI-H23
Summary of the method: as §1

[3] = tested on: LOU-NH91
Summary of the method: as §1

[4] = tested on: EPLC-272H
Summary of the method: as §1

[5] = tested on: NCI-H1563
Summary of the method: as §1

[6] = tested on: LCLC-103H
Summary of the method: as §1

[7] = tested on: NCI-H2085
Summary of the method: as §1

[8] = tested on: NCI-H1975
Summary of the method: as §1

[9] = tested on: NCI-H322M
Summary of the method: as §1

[10] = tested on: LU99A
Summary of the method: as §1

[11] = tested on: HCC-78
Summary of the method: as §1

[12] = tested on: NCI-H2405
Summary of the method: as §1

[13] = tested on: LXF-289
Summary of the method: as §1

[14] = tested on: LK-2
Summary of the method: as §1

[15] = tested on: SK-LU-1
Summary of the method: as §1

[16] = tested on: HCC-827
Summary of the method: as §1

[17] = tested on: RERF-LC-KJ
Summary of the method: as §1

[18] = tested on: SW 1573
Summary of the method: as §1

[19] = tested on: EMC-BAC-2
Summary of the method: as §1

[20] = tested on: NCI-H2126
Summary of the method: as §1

[21] = tested on: NCI-H3122
Summary of the method: as §1

`NC(=O)Nc1cc(-c2cccc(F)c2)sc1C(=O)N[C@H]1CCCNC1` [AZD7762] + C[C@]1(O)C[C@@H](c2nc(-c3ccc4ccc(-c5ccccc5)nc4c3)c3c(N)nccn32)C1 [Linsitinib] (partner 1 µM) gave a relative viability ([1]; first compound 0.01 µM) of 0.845, a relative viability ([1]; first compound 0.03162 µM) of 1.02 and a relative viability ([1]; first compound 0.1 µM) of 1.05. The relative viability ([1]; first compound 0.3162 µM) was 0.868, the relative viability ([1]; first compound 1 µM) was 0.565 and the relative viability ([2]; first compound 0.01 µM) was 0.659. For the same compound, the relative viability ([2]; first compound 0.03162 µM) was 0.631, the relative viability ([2]; first compound 0.1 µM) was 0.517 and the relative viability ([2]; first compound 0.3162 µM) was 0.517. The relative viability ([2]; first compound 1 µM) was 0.252, the relative viability ([3]; first compound 0.01 µM) was 1.01 and the relative viability ([3]; first compound 0.03162 µM) was 0.966. The relative viability ([3]; first compound 0.1 µM) was 0.933, the relative viability ([3]; first compound 0.3162 µM) was 0.794 and the relative viability ([3]; first compound 1 µM) was 0.57. It also gave a relative viability ([4]; first compound 0.01 µM) of 1.15, a relative viability ([4]; first compound 0.03162 µM) of 1.28 and a relative viability ([4]; first compound 0.1 µM) of 1.23. It also gave a relative viability ([4]; first compound 0.3162 µM) of 1.19, a relative viability ([4]; first compound 1 µM) of 0.871 and a relative viability ([5]; first compound 0.01 µM) of 1.25. For the same compound, the relative viability ([5]; first compound 0.03162 µM) was 1.25, the relative viability ([5]; first compound 0.1 µM) was 1.46 and the relative viability ([5]; first compound 0.3162 µM) was 1.12. The relative viability ([5]; first compound 1 µM) was 0.953, the relative viability ([6]; first compound 0.01 µM) was 1.1 and the relative viability ([6]; first compound 0.03162 µM) was 1.09. For the same compound, the relative viability ([6]; first compound 0.1 µM) was 0.997, the relative viability ([6]; first compound 0.3162 µM) was 1.11 and the relative viability ([6]; first compound 1 µM) was 0.738. It also gave a relative viability ([7]; first compound 0.01 µM) of 1.03, a relative viability ([7]; first compound 0.03162 µM) of 0.885 and a relative viability ([7]; first compound 0.1 µM) of 0.874. It also gave a relative viability ([7]; first compound 0.3162 µM) of 0.948, a relative viability ([7]; first compound 1 µM) of 0.693 and a relative viability ([8]; first compound 0.01 µM) of 1.07. The relative viability ([8]; first compound 0.03162 µM) was 0.888, the relative viability ([8]; first compound 0.1 µM) was 0.881 and the relative viability ([8]; first compound 0.3162 µM) was 0.681. The relative viability ([8]; first compound 1 µM) was 0.482, the relative viability ([9]; first compound 0.01 µM) was 1.02 and the relative viability ([9]; first compound 0.03162 µM) was 1.03. It also gave a relative viability ([9]; first compound 0.1 µM) of 0.92, a relative viability ([9]; first compound 0.3162 µM) of 0.987 and a relative viability ([9]; first compound 1 µM) of 0.84. It also gave a relative viability ([10]; first compound 0.01 µM) of 0.612, a relative viability ([10]; first compound 0.03162 µM) of 0.568 and a relative viability ([10]; first compound 0.1 µM) of 0.526. For the same compound, the relative viability ([10]; first compound 0.3162 µM) was 0.432, the relative viability ([10]; first compound 1 µM) was 0.397 and the relative viability ([11]; first compound 0.01 µM) was 0.624. The relative viability ([11]; first compound 0.03162 µM) was 0.553, the relative viability ([11]; first compound 0.1 µM) was 0.581 and the relative viability ([11]; first compound 0.3162 µM) was 0.519. For the same compound, the relative viability ([11]; first compound 1 µM) was 0.345, the relative viability ([12]; first compound 0.01 µM) was 1 and the relative viability ([12]; first compound 0.03162 µM) was 0.929. It also gave a relative viability ([12]; first compound 0.1 µM) of 0.86, a relative viability ([12]; first compound 0.3162 µM) of 0.655 and a relative viability ([12]; first compound 1 µM) of 0.402. It also gave a relative viability ([13]; first compound 0.01 µM) of 0.957, a relative viability ([13]; first compound 0.03162 µM) of 0.938 and a relative viability ([13]; first compound 0.1 µM) of 1.01. It also gave a relative viability ([13]; first compound 0.3162 µM) of 1.03, a relative viability ([13]; first compound 1 µM) of 1.06 and a relative viability ([14]; first compound 0.01 µM) of 0.691. The relative viability ([14]; first compound 0.03162 µM) was 0.597, the relative viability ([14]; first compound 0.1 µM) was 0.618 and the relative viability ([14]; first compound 0.3162 µM) was 0.645. The relative viability ([14]; first compound 1 µM) was 0.308, the relative viability ([15]; first compound 0.01 µM) was 1.1 and the relative viability ([15]; first compound 0.03162 µM) was 0.804. For the same compound, the relative viability ([15]; first compound 0.1 µM) was 0.358, the relative viability ([15]; first compound 0.3162 µM) was 0.218 and the relative viability ([15]; first compound 1 µM) was 0.251. For the same compound, the relative viability ([16]; first compound 0.01 µM) was 1.06, the relative viability ([16]; first compound 0.03162 µM) was 0.994 and the relative viability ([16]; first compound 0.1 µM) was 0.922. It also gave a relative viability ([16]; first compound 0.3162 µM) of 0.961, a relative viability ([16]; first compound 1 µM) of 0.863 and a relative viability ([17]; first compound 0.01 µM) of 0.923. For the same compound, the relative viability ([17]; first compound 0.03162 µM) was 0.879, the relative viability ([17]; first compound 0.1 µM) was 0.849 and the relative viability ([17]; first compound 0.3162 µM) was 0.908. For the same compound, the relative viability ([17]; first compound 1 µM) was 0.842, the relative viability ([18]; first compound 0.01 µM) was 0.843 and the relative viability ([18]; first compound 0.03162 µM) was 0.989. The relative viability ([18]; first compound 0.1 µM) was 0.99, the relative viability ([18]; first compound 0.3162 µM) was 0.891 and the relative viability ([18]; first compound 1 µM) was 0.752. The relative viability ([19]; first compound 0.01 µM) was 0.795, the relative viability ([19]; first compound 0.03162 µM) was 0.806 and the relative viability ([19]; first compound 0.1 µM) was 0.799. It also gave a relative viability ([19]; first compound 0.3162 µM) of 0.799, a relative viability ([19]; first compound 1 µM) of 0.809 and a relative viability ([20]; first compound 0.01 µM) of 0.711. For the same compound, the relative viability ([20]; first compound 0.03162 µM) was 0.758, the relative viability ([20]; first compound 0.1 µM) was 0.763 and the relative viability ([20]; first compound 0.3162 µM) was 0.706. The relative viability ([20]; first compound 1 µM) was 0.805, the relative viability ([21]; first compound 0.01 µM) was 1.02 and the relative viability ([21]; first compound 0.03162 µM) was 0.986. The relative viability ([21]; first compound 0.1 µM) was 1.05, the relative viability ([21]; first compound 0.3162 µM) was 0.868 and the relative viability ([21]; first compound 1 µM) was 1.12.
